Test results from ChEMBL document CHEMBL5579829, “Discovery of a potent CDKs/FLT3 PROTAC with enhanced differentiation and proliferation inhibition for AML” (Eur J Med Chem, 2024).
The source made the active and inactive calls. The calls are words filed in the database; no cut-off is given here.

Assays:
HL-60 [1] = assay: Antiproliferative activity against human HL-60 cells measured after 1 to 3 days by CCK-8 assay; assay type: functional, cell-based
[2] = molecular target: T1, Protein cereblon/Cyclin-dependent kinase 2 (Homo sapiens, UniProt P24941+Q96SW2); assay: Protac activity at CRBN/CDK2 in human HL-60 cells assessed as induction of CDK2 degradation measured after 24 hrs by Western blot analysis relative to control; assay type: cell-based
[3] = molecular target: T1, Protein cereblon/Cyclin-dependent kinase 2; assay: Protac activity at CRBN/CDK2 in human HL-60 cells assessed as induction of CDK2 degradation measured after 24 hrs by Western blot analysis; assay type: cell-based
[4] = molecular target: T1, Protein cereblon/Cyclin-dependent kinase 2; assay: Protac activity at CRBN/CDK2 in human HL-60 cells assessed as induction of CDK2 degradation at 10 nM measured at 12 hrs by Western blot analysis; assay type: cell-based
[5] = molecular target: T1, Protein cereblon/Cyclin-dependent kinase 2; assay: Protac activity at CRBN/CDK2 in human HL-60 cells assessed as induction of CDK2 degradation at 10 nM measured after 24 hrs in presence of NEDD8-activated E1 enzyme inhibitor MLN4924 by Western blot analysis; assay type: cell-based
[6] = molecular target: T1, Protein cereblon/Cyclin-dependent kinase 2; assay: Protac activity at CRBN/CDK2 in human HL-60 cells assessed as induction of CDK2 degradation at 10 nM measured after 24 hrs in presence of CRBN ligand thalidomide by Western blot analysis; assay type: cell-based
[7] = molecular target: T1, Protein cereblon/Cyclin-dependent kinase 2; assay: Protac activity at CRBN/CDK2 in human HL-60 cells assessed as induction of CDK2 degradation at 10 nM measured after 24 hrs in presence of CDK2 inhibitor FN-150 by Western blot analysis; assay type: cell-based
HL-60 [8] = assay: Induction of pro-differentiation of human HL-60 cells assessed as increase in CD11b expression measured after 3 to 5 days by immunostaining-based flow cytometry; assay type: functional, cell-based; settings: dose 1-6.25 nM, time 3-5 day
HL-60 [9] = assay: Induction of pro-differentiation of human HL-60 cells assessed as CD11b expression at 1 nM measured after 3 days by immunostaining-based flow cytometry (reference value: 8.32 to 10.55%); assay type: functional; settings: time 3 day
HL-60 [10] = assay: Induction of pro-differentiation of human HL-60 cells assessed as CD11b expression at 1 nM measured after 5 days by immunostaining-based flow cytometry (reference value: 10.08 to 10.33%); assay type: functional; settings: time 5 day
HL-60 [11] = assay: Induction of pro-differentiation of human HL-60 cells assessed as CD11b expression at 4 nM measured after 5 days by immunostaining-based flow cytometry (reference value: 10.08 to 10.33%); assay type: functional; settings: time 5 day
HL-60 [12] = assay: Induction of pro-differentiation of human HL-60 cells assessed as increase in CD11b expression at 6.25 nM measured after 5 days by immunostaining-based flow cytometry relative to control; assay type: functional; settings: time 5 day
HL-60 [13] = assay: Induction of pro-differentiation of human HL-60 cells assessed as increase in CD11b expression at 6.25 nM measured after 5 days by immunostaining-based flow cytometry relative to 500 nM CPS2; assay type: functional; settings: time 5 day
THP-1 = assay: Antiproliferative activity against human THP-1 cells measured after 1 to 3 days by CCK-8 assay; assay type: functional, cell-based
Kasumi 1 = assay: Antiproliferative activity against human Kasumi 1 cells measured after 1 to 3 days by CCK-8 assay; assay type: functional, cell-based
NB-4 = assay: Antiproliferative activity against human NB4 cells measured after 1 to 3 days by CCK-8 assay; assay type: functional, cell-based
OCI-AML2 = assay: Antiproliferative activity against human OCI-AML2 cells measured after 1 to 3 days by CCK-8 assay; assay type: functional, cell-based
[14] = molecular target: T2, Protein cereblon/Cyclin-dependent kinase 6 (Homo sapiens, UniProt Q00534+Q96SW2); assay: Protac activity at CRBN/CDK6 in human HL-60 cells assessed as induction of CDK6 degradation measured after 3 days by Western blot analysis; assay type: cell-based
Target sequence in this assay (Q00534 whole entry): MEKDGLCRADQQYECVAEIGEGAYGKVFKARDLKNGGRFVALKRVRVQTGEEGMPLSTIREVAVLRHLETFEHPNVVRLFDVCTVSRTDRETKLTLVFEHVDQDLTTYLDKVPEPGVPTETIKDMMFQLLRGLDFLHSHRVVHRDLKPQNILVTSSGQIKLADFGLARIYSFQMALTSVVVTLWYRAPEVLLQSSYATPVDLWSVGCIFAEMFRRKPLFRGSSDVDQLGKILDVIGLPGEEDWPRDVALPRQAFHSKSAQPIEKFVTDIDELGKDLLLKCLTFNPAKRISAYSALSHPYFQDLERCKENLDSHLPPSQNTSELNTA
Target sequence in this assay (Q96SW2 whole entry): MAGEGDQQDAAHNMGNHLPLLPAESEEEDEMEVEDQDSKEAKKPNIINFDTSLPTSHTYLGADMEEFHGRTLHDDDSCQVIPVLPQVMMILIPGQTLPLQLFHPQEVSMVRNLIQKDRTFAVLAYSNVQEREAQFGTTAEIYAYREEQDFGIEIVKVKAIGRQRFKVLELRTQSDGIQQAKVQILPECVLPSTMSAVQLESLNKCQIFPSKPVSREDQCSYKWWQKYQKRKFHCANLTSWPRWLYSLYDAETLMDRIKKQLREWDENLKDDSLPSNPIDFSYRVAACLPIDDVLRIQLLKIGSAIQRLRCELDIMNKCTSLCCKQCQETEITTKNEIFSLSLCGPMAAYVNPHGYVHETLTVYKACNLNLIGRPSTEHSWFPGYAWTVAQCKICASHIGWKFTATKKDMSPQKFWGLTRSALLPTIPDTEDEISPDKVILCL

[15] = molecular target: T3, Protein cereblon/Cyclin-dependent kinase 9 (Homo sapiens, UniProt P50750+Q96SW2); assay: Protac activity at CRBN/CDK9 in human HL-60 cells assessed as induction of CDK9 degradation measured after 3 days by Western blot analysis; assay type: cell-based
Target sequence in this assay (P50750 whole entry): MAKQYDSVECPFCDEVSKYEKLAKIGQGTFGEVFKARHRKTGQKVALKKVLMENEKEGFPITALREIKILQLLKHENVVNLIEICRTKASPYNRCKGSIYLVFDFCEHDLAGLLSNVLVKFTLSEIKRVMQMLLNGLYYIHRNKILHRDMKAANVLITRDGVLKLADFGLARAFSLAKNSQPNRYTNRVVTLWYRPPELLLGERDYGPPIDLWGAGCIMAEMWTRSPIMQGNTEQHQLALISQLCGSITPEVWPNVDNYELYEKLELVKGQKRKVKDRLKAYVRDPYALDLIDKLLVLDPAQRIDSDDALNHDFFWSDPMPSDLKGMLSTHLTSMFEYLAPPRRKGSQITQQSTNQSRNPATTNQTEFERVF
Target sequence in this assay (Q96SW2 whole entry): as the sequence (Q96SW2 whole entry) above

[16] = molecular target: T1, Protein cereblon/Cyclin-dependent kinase 2; assay: Protac activity at CRBN/CDK2 in human MV4-11 cells assessed as induction of CDK2 degradation at 2 to 32 nM measured after 3 days by Western blot analysis; assay type: cell-based; settings: dose 2-32 nM, time 3.0 day
[17] = molecular target: Protein cereblon/Cyclin-dependent kinase 4 (Homo sapiens, UniProt P11802+Q96SW2); assay: Protac activity at CRBN/CDK4 in human MV4-11 cells assessed as induction of CDK4 degradation at 2 to 32 nM measured after 3 days by Western blot analysis; assay type: cell-based; settings: dose 2-32 nM, time 3.0 day
[18] = tested on: Protein cereblon/Receptor-type tyrosine-protein kinase FLT3 (Homo sapiens), P36888+Q96SW2 [UNDEFINED MUTATION]; assay: Protac activity at CRBN/FLT3-ITD mutant in human MV4-11 cells assessed as induction of FLT3 degradation at 2 nM measured after 3 days by Western blot analysis relative to control; assay type: cell-based; settings: time 3.0 day
[19] = molecular target: T1, Protein cereblon/Cyclin-dependent kinase 2; assay: Protac activity at CRBN/CDK2 in human Kasumi 1 cells assessed as induction of CDK2 degradation at 2 to 32 nM measured after 3 days by Western blot analysis; assay type: cell-based; settings: dose 2-32 nM, time 3.0 day
[20] = molecular target: T2, Protein cereblon/Cyclin-dependent kinase 6; assay: Protac activity at CRBN/CDK6 in human Kasumi 1 cells assessed as induction of CDK6 degradation at 2 to 32 nM measured after 3 days by Western blot analysis; assay type: cell-based; settings: dose 2-32 nM, time 3.0 day
Target sequence in this assay (Q00534 whole entry, looked up): as the sequence (Q00534 whole entry) above
Target sequence in this assay (Q96SW2 whole entry, looked up): as the sequence (Q96SW2 whole entry) above

[21] = tested on: Protein cereblon/Receptor-type tyrosine-protein kinase FLT3 (Homo sapiens), P36888+Q96SW2 [UNDEFINED MUTATION]; assay: Protac activity at CRBN/FLT3-ITD mutant in human Kasumi 1 cells assessed as induction of FLT3 degradation at 2 to 32 nM measured after 3 days by Western blot analysis; assay type: cell-based; settings: dose 2-32 nM, time 3.0 day
[22] = molecular target: T3, Protein cereblon/Cyclin-dependent kinase 9; assay: Protac activity at CRBN/CDK9 in human THP-1 cells assessed as induction of CDK9 degradation at 4 to 64 nM measured after 3 days by Western blot analysis; assay type: cell-based; settings: dose 4-64 nM, time 3.0 day
Target sequence in this assay (P50750 whole entry, looked up): as the sequence (P50750 whole entry) above
Target sequence in this assay (Q96SW2 whole entry, looked up): as the sequence (Q96SW2 whole entry) above

[23] = molecular target: T4, Protein cereblon/Cyclin-dependent kinase 1 (Homo sapiens) (UniProt P06493+Q96SW2); assay: Protac activity at CRBN/CDK1 in human THP-1 cells assessed as induction of CDK1 degradation at 4 to 64 nM measured after 3 days by Western blot analysis; assay type: cell-based; settings: dose 4-64 nM, time 3.0 day
[24] = molecular target: T4, Protein cereblon/Cyclin-dependent kinase 1 (Homo sapiens); assay: Protac activity at CRBN/CDK1 in human HL-60 cells assessed as induction of CDK1 degradation at 4 to 64 nM measured after 3 days by Western blot analysis; assay type: cell-based; settings: dose 4-64 nM, time 3.0 day
[25] = molecular target: T5, Protein cereblon/Cyclin-dependent kinase 5 (Homo sapiens) (UniProt Q00535+Q96SW2); assay: Protac activity at CRBN/CDK5 in human HL-60 cells assessed as induction of CDK5 degradation at 4 to 64 nM measured after 3 days by Western blot analysis; assay type: cell-based; settings: dose 4-64 nM, time 3.0 day
[26] = molecular target: T4, Protein cereblon/Cyclin-dependent kinase 1 (Homo sapiens); assay: Protac activity at CRBN/CDK1 in human MV4-11 cells assessed as induction of CDK1 degradation at 2 to 32 nM measured after 3 days by Western blot analysis; assay type: cell-based; settings: dose 2-32 nM, time 3.0 day
[27] = molecular target: T4, Protein cereblon/Cyclin-dependent kinase 1 (Homo sapiens); assay: Protac activity at CRBN/CDK1 in human Kasumi 1 cells assessed as induction of CDK1 degradation at 2 to 32 nM measured after 3 days by Western blot analysis; assay type: cell-based; settings: dose 2-32 nM, time 3.0 day
[28] = molecular target: T5, Protein cereblon/Cyclin-dependent kinase 5 (Homo sapiens); assay: Protac activity at CRBN/CDK5 in human Kasumi 1 cells assessed as induction of CDK5 degradation at 2 to 32 nM measured after 3 days by Western blot analysis; assay type: cell-based; settings: dose 2-32 nM, time 3.0 day

T4 sequence (P06493 whole entry, looked up): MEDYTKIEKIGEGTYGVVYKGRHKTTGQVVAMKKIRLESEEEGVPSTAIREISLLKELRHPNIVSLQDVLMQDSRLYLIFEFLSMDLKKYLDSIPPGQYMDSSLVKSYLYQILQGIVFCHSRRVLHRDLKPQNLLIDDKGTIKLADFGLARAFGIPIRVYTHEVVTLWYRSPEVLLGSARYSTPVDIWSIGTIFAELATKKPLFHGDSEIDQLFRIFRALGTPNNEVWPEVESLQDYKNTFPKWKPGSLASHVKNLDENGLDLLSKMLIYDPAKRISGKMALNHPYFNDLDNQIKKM
T4 sequence (Q96SW2 whole entry, looked up): as the sequence (Q96SW2 whole entry) above
Chain of Protein cereblon/Receptor-type tyrosine-protein kinase FLT3 (Homo sapiens), P36888+Q96SW2 [UNDEFINED MUTATION] (P36888 whole entry, looked up, change not shown): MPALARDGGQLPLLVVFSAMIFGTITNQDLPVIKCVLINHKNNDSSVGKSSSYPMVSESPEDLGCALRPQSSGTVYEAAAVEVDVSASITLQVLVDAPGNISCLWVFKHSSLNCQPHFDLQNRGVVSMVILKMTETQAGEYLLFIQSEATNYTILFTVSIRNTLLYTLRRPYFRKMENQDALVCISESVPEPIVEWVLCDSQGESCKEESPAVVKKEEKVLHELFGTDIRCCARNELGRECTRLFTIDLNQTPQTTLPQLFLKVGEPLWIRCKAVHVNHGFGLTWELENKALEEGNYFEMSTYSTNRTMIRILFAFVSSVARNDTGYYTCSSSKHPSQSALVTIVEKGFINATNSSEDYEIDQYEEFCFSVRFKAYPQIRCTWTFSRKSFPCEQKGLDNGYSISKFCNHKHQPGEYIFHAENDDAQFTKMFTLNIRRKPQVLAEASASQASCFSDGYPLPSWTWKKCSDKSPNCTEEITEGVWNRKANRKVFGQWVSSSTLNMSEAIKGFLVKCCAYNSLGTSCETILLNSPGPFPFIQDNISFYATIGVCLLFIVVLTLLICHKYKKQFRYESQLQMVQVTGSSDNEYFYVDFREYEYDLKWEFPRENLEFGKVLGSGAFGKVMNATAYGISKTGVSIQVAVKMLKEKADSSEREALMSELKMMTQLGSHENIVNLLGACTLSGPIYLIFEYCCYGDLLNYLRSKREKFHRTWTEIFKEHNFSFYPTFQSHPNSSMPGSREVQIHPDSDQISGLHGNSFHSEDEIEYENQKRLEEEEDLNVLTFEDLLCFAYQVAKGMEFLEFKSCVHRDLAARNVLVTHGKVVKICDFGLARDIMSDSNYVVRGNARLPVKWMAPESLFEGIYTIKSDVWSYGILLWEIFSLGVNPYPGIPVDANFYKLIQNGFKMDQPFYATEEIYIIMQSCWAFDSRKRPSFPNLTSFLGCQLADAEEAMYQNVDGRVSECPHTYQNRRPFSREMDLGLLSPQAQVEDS
Chain of Protein cereblon/Receptor-type tyrosine-protein kinase FLT3 (Homo sapiens), P36888+Q96SW2 [UNDEFINED MUTATION] (Q96SW2 whole entry, looked up, change not shown): as the sequence (Q96SW2 whole entry) above
T5 sequence (Q00535 whole entry, looked up): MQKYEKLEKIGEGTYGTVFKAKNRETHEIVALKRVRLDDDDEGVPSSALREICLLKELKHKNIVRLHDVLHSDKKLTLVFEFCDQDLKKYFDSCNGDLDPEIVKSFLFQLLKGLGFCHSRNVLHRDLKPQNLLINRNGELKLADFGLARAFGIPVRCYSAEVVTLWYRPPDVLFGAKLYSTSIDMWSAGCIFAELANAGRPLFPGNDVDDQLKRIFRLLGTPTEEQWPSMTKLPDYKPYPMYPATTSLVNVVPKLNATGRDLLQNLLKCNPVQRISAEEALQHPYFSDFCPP
T5 sequence (Q96SW2 whole entry, looked up): as the sequence (Q96SW2 whole entry) above
Chain of Protein cereblon/Cyclin-dependent kinase 4 (P11802 2-303 limits assumed): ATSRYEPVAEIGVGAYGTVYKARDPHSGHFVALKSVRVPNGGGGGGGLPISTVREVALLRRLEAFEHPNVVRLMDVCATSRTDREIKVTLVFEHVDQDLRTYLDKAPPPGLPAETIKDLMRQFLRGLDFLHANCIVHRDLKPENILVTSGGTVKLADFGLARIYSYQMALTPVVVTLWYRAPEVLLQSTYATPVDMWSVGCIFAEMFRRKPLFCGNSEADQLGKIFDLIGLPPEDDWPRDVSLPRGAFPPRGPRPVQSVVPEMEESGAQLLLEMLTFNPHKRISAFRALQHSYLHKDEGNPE
Chain of Protein cereblon/Cyclin-dependent kinase 4 (Q96SW2 whole entry partner): as the sequence (Q96SW2 whole entry) above

## O=C1CCC(N2C(=O)c3ccc(N4CCC(CN5CCN(Cc6ccc(NC(=O)c7n[nH]cc7Nc7ncnc8[nH]ccc78)cc6)CC5)CC4)cc3C2=O)C(=O)N1 (configuration not stated)
HL-60 [1]
  IC50: 10.5 nM
[2]
  Emax: 86.8%
[3]
  DC50: 18.7 nM
[4]
  Activity: Active
[5]
  Activity: inactive
[6]
  Activity: inactive
[7]
  Activity: inactive
HL-60 [8]
  Activity: Dose-Dependent Effect
HL-60 [9]
  Activity: 23.74%
HL-60 [10]
  Activity: 29.85%
HL-60 [11]
  Activity: 58.59%
HL-60 [12]
  fold change (FC): 7.2
HL-60 [13]
  fold change (FC): 2.1
THP-1
  IC50: 37.1 nM
Kasumi 1
  IC50: 3.99 nM
NB-4
  IC50: 4.94 nM
OCI-AML2
  IC50: 17.9 nM
[14]
  DC50: 2.71 nM
[15]
  DC50: 4.34 nM
[16]
  Activity: Active
[17]
  Activity: Active
[18]
  Activity: 77%
[19]
  Activity: Active
[20]
  Activity: Active
[21]
  Activity: Active
[22]
  Activity: Active
[23]
  Activity: inactive
[24]
  Activity: inactive
[25]
  Activity: inactive
[26]
  Activity: inactive
[27]
  Activity: inactive
[28]
  Activity: inactive
